This is an account of results in patent publication EP0346791B1, “1,2-diarylethylamines for treatment of neurotoxic injury” (priority 1988, dated 1989).

One assay has as its system Male Mongolian gerbils. Put plainly: Forebrain ischemia assay (carotid occlusion, CA1 cell loss). In kind it is in vivo. As to conditions: 30 mg/kg i.p. 30 minutes prior to carotid occlusion; 7 days; vs saline injected gerbils; Mann-Whitney U test p<0.01. The procedure:
Male Mongolian gerbils, 50-70 gm, were used as subjects. Compound No. 1 (30 mg/kg) was injected i.p. 30 minutes prior to carotid occlusion into 6 gerbils. In preparation for surgical procedures, the animals were lightly anesthetized with methoxyflurane and placed upside down on a heated pad with their snout within a nosecone. Nitrous oxide (70%): oxygen (30%) plus 0.5% halothane was circulated through the nosecone to provide continuous anesthesia throughout the surgical procedure. A midline incision was made in the neck and the carotid arteries were exposed. A length of suture thread was placed under each carotid. The thread was then tightened around each carotid and pressure applied to the thread to insure flow was occluded. Flow was occluded for 4-5 minutes and then the thread was removed. The carotids were visually inspected to confirm that reflow had occurred. The wound was then closed with autoclips and the gerbils allowed to recover. Following surgery, the gerbils were kept alive for 7 days. They were anesthetized with 100 mg/kg sodium pentobarbital and perfused transcardially with saline (with heparin) followed by buffered formalin. The brain was removed, trimmed and prepared for histological processing. Sections (10 microns) were stained with thionin. […]

The subject of a further assay is Male Sprague-Dawley rats. Nature of the assay: Behavioral assay (stereotyped behavior, PCP rating scale). In kind it is in vivo. The settings on record: 95% confidence intervals in parenthesis; for ED50: Rattus norvegicus. The procedure: Nine compounds were tested in comparison with PCP and TCP by an in vivo assay which determined stereotypic behavior in rats treated with the compounds. Male Sprague-Dawley rats weighing 200 to 250 g were used in the behavioral experiments. Each rat was used only once. Rats were anesthetized lightly with ether before a 20-gauge needle was used to make a hole in the rat's skull for i.c.v. injection of drugs at a later date. These rats were allowed to recover for at least 1 day before being used in the behavioral assays. On the day of the experiment, rats were placed individually into plastic rat cages and allowed at least 1 hr to acclimate before testing. Drugs were administered to rats in a random, single-blind fashion.
Dose-response curves for each treatment were determined at the time of maximal behavioral effect. Peak effects were found 5 min after i.c.v. administration of PCP (25-20000 nmol/rat). […] A rating of 5 in the PCP-rating scale was considered as complete stereotyped behavior, that is, a 100% response. At least 21 rats (at least seven rats/dose) were used to determine each dose-response curve and ED₅₀ values. ED₅₀ values and dose-response curves were evaluated using a computerized Finney assay [Statistical Methods In Biological Assays, 2nd Edn., Hatner Pub. Co., New York (1964)].
The ability of the tested compounds to induce stereotyped behavior was assessed at 2.5, 5 and 10 minutes and thereafter every 5 min up to 1 hr after i.c.v., i.p., or s.c. administration.

Assay [1] concerns hippocampal neurons. Put plainly: Chronic hypoxic insult assay (MTT neuronal survival). It is filed as cell-based, Sprague-Dawley rats. As to conditions: for Optical Density: 6 hours anaerobic chamber, then 2 hours normal O2, MTT 570 nm, ± SEM, untreated control 0.058, hypoxia alone 0.020; for Maximum protection of neurons from hypoxic insult was obtained with: concentration giving maximum protection. The procedure:
Compound Nos. 4 and 5 were tested for their ability to protect hippocampal neurons from hypoxia-induced cell death. Cultures of hippocampal neurons were prepared from embryonic day 17 Sprague-Dawley rats. The hippocampi were dissociated into a single cell suspension by incubation with 0.25% trypsin, […] DNase followed by gentle trituration through a Pasteur pipet. The cells were plated in a polylysine-coated 96-well plate and maintained in a chemically defined medium until use. The cells were grown for 2 to 3 weeks in 5% CO₂-in-air humidified environment at 36°C to establish a thick network of neuronal processes with numerous spontaneously active synapses. Exposure to hypoxic/anoxic environment was accomplished by placing the cultures in an anaerobic chamber, and flushing it with a mixture of 95% N₂+ 5% CO₂ gas to rapidly drop the O₂ tension to near zero. The O₂ tension was maintained at near zero using a disposable H₂ + CO₂ generator envelope with palladium catalyst. Compound No. 4 and Compound No. 5 were added to the culture medium prior to incubation in the anaerobic chamber and maintained there for 6 hours. Following 2 hours of exposure to normal O₂ tension, the cultures were processed for morphological and quantitive biochemical neuronal cell viability assays.
The neuronal survival assay utilized the compound MTT [(3-(4,5-dimethylthiazol-2-yl)-2,5-diphenyl tetrazolium bromide)], a pale yellow substrate that is cleaved by the mitochondrial enzyme succinate-dehydrogenase to yield a dark blue formazan product. This process requires active mitochondria, present only in live cells. Cultures of hippocampal neurons grown in 96-well plates were incubated with 1 mg/ml MTT at 36°C in a 10% CO₂-in-air incubator for 30-60 min. At the end of the incubation, a dark blue precipitate outlined only viable cells. The precipitate was then solubilized using 0.08 N HCl/isopropanol mixture and the absorbance measured with an ELISA plate reader (Dynatech MR600) using a test wavelength of 570 nm and a reference wavelength of 630 nm. The resulting optical density is directly proportional to the number of viable cells.

A further assay addresses PCP receptors. It is filed as binding. As to conditions: 1 nM 3H-TCP, whole rat brain membranes, 1 hour incubation; value ± SEM; read-out: Ki apparent.
Assay [2] has as its system hippocampal neurons. Nature of the assay: Acute azide toxicity assay (MTT neuronal survival). In kind it is cell-based, Sprague-Dawley rats. As to conditions: 10 µM sodium azide for 1 hour.
Where [3] appears, read: ip, read-out: Stereotyped Behavior ED₅₀ i.p.
Setting [4] is: sc, read-out: Stereotyped Behavior ED₅₀ s.c.

Read-outs that look alike come from different tables or passages of the source.

For `c1ccc(CC(c2ccccc2)N2CCCCC2)cc1` (racemic) [Compound No. 1], the “cell loss in CA1” value in the assay with Male Mongolian gerbils is listed as “significantly reduced”. The ED50 in the assay on Male Sprague-Dawley rats (setting [3]) is 2 mg/kg; with Male Sprague-Dawley rats (setting [4]), 2.9 mg/kg.

In the case of `c1ccc(CC(c2cccs2)N2CCCCC2)cc1` (racemic) [Compound No. 5], in the assay with Male Sprague-Dawley rats (setting [4]), the ED50 came out at 3.5 mg/kg. In addition, the “Optical Density” value in the assay with hippocampal neurons [1] (Hypoxia + 10 µM compound) stood at 0.047 ± 0.01. The “Maximum protection of neurons from hypoxic insult was obtained with” value in the assay on hippocampal neurons [1] was determined as 10 µM. `C1=CCN(C(Cc2ccccc2)c2ccccc2)CC1` (racemic) [Compound No. 6]: the “Stereotyped Behavior ED₅₀ i.c.v.” value in the assay with Male Sprague-Dawley rats was 100(81-120) nmoles/rat. On to `CC(C)C(c1ccccc1)C(c1ccccc1)N1CCCCC1` (racemic) [Compound No. 12], for which, in the assay on Male Sprague-Dawley rats (setting [4]), the ED50 is more than 50 mg/kg.

With `OC(c1ccccc1)C(c1ccccc1)N1CCCCC1` (racemic) [Compound No. 13], the ED50 in the assay with Male Sprague-Dawley rats (setting [4]) turned out to be 11 mg/kg.

On to `C1=CCN(C(Cc2ccccc2)c2cccs2)CC1` (racemic) [Compound No. 15], for which the ED50 in the assay on Male Sprague-Dawley rats (setting [4]) was 1.7 mg/kg.

For `c1ccc(CC(c2ccccc2)N2CCCC2)cc1` (racemic) [Compound No. 20], on PCP receptors, the Ki was 16000 ± 2600 nM. Further, the ED50 in the assay with Male Sprague-Dawley rats (setting [4]) was found to be 7.8 mg/kg. `Cc1ccc(C(Cc2ccccc2)N2CCCCC2)cc1` (racemic) [Compound No. 21]: the Ki at PCP receptors is 1800 ± 300 nM.

As for `COc1ccc(C(Cc2ccccc2)N2CCCCC2)cc1` (racemic) [Compound No. 22], at PCP receptors, the Ki amounted to 8100 ± 500 nM. Regarding `c1ccc(C(N2CCCCC2)C2(c3ccccc3)CC2)cc1` (racemic) [Compound No. 23], on PCP receptors, the Ki is more than 30000 nM. For `CC1CC(C)CN(C(Cc2ccccc2)c2ccccc2)C1` (racemic) [Compound No. 24], the Ki on PCP receptors is 850 ± 40 nM. On to `CC(C)(c1ccccc1)C(c1cccs1)N1CCCCC1` (racemic) [Compound No. 25], for which the Ki on PCP receptors is more than 30000 nM. On the same count and under the same terms, the figure for `COc1cccc(C(Cc2ccccc2)N2CCCCC2)c1` (racemic) [Compound No. 26] is 100 ± 20 nM; for `Fc1ccc(C(Cc2ccccc2)N2CCCCC2)cc1` (racemic) [Compound No. 27] it is 220 ± 10 nM. Same read-out and setting: the figure for `CC(C)(c1ccccc1)C(c1ccccc1)N1CCCCC1` (racemic) [Compound No. 28] is 12000 ± 1000 nM; for `Cc1cccc(C(Cc2ccccc2)N2CCCCC2)c1` (racemic) [Compound No. 29] it is 110 ± 30 nM. Same read-out and setting: for `c1ccc(CC(c2ccco2)N2CCCCC2)cc1` (racemic) [Compound No. 30] the value was 400 ± 10 nM.

Consider `Clc1ccccc1C(Cc1ccccc1)N1CCCCC1` (racemic) [Compound No. 31], for which the Ki on PCP receptors was found to be 0.19 ± 0.11 nM. Same read-out and setting: for `COc1ccccc1C(Cc1ccccc1)N1CCCCC1` (racemic) [Compound No. 32] the value was 170 ± 10 nM; for `c1ccc(CC(c2cccc3ccccc23)N2CCCCC2)cc1` (racemic) [Compound No. 33], 6000 ± 1700 nM. `c1ccc(CC(c2ccccc2)N2CCCCC2)cc1` (single isomer, unassigned) [Compound No. 3]: the “Stereotyped Behavior ED₅₀ s.c.” value with Male Sprague-Dawley rats is more than 40 mg/kg.

With `c1ccc(CC(c2ccccc2)N2CCCCC2)cc1` (single isomer, unassigned) [Compound No. 4], the ED50 with Male Sprague-Dawley rats (setting [3]) was 2.1 mg/kg. In the assay with Male Sprague-Dawley rats, the “Stereotyped Behavior ED₅₀ i.c.v.” value is reported as 120(100-140) nmoles/rat and the “Stereotyped Behavior ED₅₀ s.c.” value is recorded as 0.78(0.60-1.0) mg/kg. Besides, in the assay with hippocampal neurons [1] (Hypoxia + 1 µM compound), the “Optical Density” value worked out at 0.046 ± 0.01. Further, the “Maximum protection of neurons from hypoxic insult was obtained with” value in the assay on hippocampal neurons [1] is reported as 1 µM. Besides, the “protection of neurons from sodium azide toxicity” value in the assay with hippocampal neurons [2] (100 µM compound) is on record as “significant protection”. Besides, the “Optical Density” value with hippocampal neurons [2] (Sodium azide + 100 µM compound, MTT, ± SEM, control 0.123, sodium azide alone 0.075) is 0.133 ± 0.01. Turning to `c1ccc(C2(N3CCCCC3)CCCCC2)cc1` [PCP, Phencyclidine, reference compound], the “Stereotyped Behavior ED₅₀ i.c.v.” value in the assay on Male Sprague-Dawley rats is given as 150(120-170) nmoles/rat.
